Reference: US9695155B2, “Herbicidal substituted pyrimidinyloxy benzene compounds” (E. I. DU PONT DE NEMOURS AND COMPANY, priority 2013, dated 2017)

Tests used:
Assay in all cases: Test F preemergence
Details in all cases: 21 days, scale 0 to 100
wild poinsettia = type: in vivo, Euphorbia heterophylla
From the text: (§1) Seeds of plant species selected from bermudagrass (Cynodon dactylon), surinam grass (Brachiaria decumbens), large (Lg) crabgrass (Digitaria sanguinalis), crabgrass, naked (naked crabgrass, Digitaria nuda), foxtail, green (green foxtail, Setaria viridis), johnsongrass (Sorghum halepense), kochia (Kochia scoparia), morningglory (pitted morningglory, Ipomoea lacunosa), nutsedge, purple (purple nutsedge, Cyperus rotundus), ragweed (common ragweed, Ambrosia elatior), mustard, black (black mustard, Brassica nigra), guineagrass (Panicum maximum), dallisgrass (Paspalum dilatatum), barnyardgrass (Echinochloa crus-galli), sandbur (southern sandbur, Cenchrus echinatus), sowthistle (common sowthistle, Sonchus oleraceous), Italian ryegrass (Lolium multiflorum), signalgrass (broadleaf signalgrass, Brachiaria platyphylla), dayflower (Virginia (VA) dayflower, Commelina virginica), bluegrass (annual bluegrass, Poa annua), quackgrass (Elytrigia repens), mallow (common mallow, Malva sylvestris), buckwheat, wild (wild buckwheat, Polygonum convolvulus), leafy spurge (Euphorbia esula), chickweed (common chickweed, Stellaria media), wild poinsettia (Euphorbia heterophylla), and pigweed (Amaranthus retroflexus) were planted into a blend of loam soil and sand and treated preemergence with test chemicals formulated in a non-phytotoxic solvent mixture which included a surfactant.
(§2) Treated plants and controls were maintained in a greenhouse for 21 days, after which time all species were compared to controls and visually evaluated. Plant response ratings, summarized in Table F, are based on a scale of 0 to 100 where 0 is no effect and 100 is complete control. A dash (-) response means no test result.

sandbur = type: in vivo, Cenchrus echinatus
From the text: as §1, §2

sowthistle = type: in vivo, Sonchus oleraceous
From the text: as §1, §2

mustard, black = type: in vivo, Brassica nigra
From the text: as §1, §2

Italian ryegrass = type: in vivo, Lolium multiflorum
From the text: as §1, §2

large (Lg) crabgrass = type: in vivo, Digitaria sanguinalis
From the text: as §1, §2

chickweed = type: in vivo, Stellaria media
From the text: as §1, §2

pigweed = type: in vivo, Amaranthus retroflexus
From the text: as §1, §2

quackgrass = type: in vivo, Elytrigia repens
From the text: as §1, §2

surinam grass = type: in vivo, Brachiaria decumbens
From the text: as §1, §2

foxtail, green = type: in vivo, Setaria viridis
From the text: as §1, §2

crabgrass, naked = type: in vivo, Digitaria nuda
From the text: as §1, §2

leafy spurge = type: in vivo, Euphorbia esula
From the text: as §1, §2

nutsedge, purple = type: in vivo, Cyperus rotundus
From the text: as §1, §2

ragweed = type: in vivo, Ambrosia elatior
From the text: as §1, §2

barnyardgrass = type: in vivo, Echinochloa crus-galli
From the text: as §1, §2

[1] = tested on: morningglory (pitted morningglory); type: in vivo, Ipomoea lacunosa
From the text: as §1, §2

buckwheat, wild = type: in vivo, Polygonum convolvulus
From the text: as §1, §2

bermudagrass = type: in vivo, Cynodon dactylon
From the text: as §1, §2

signalgrass = type: in vivo, Brachiaria platyphylla
From the text: as §1, §2

N#Cc1cccc(Oc2ncc(Cl)cn2)c1-n1cc(C(F)(F)F)cn1 [Compound 58, 3-[(5-chloro-2-pyrimidinyl)oxy]-2-[4-(trifluoromethyl)-1H-pyrazol-1-yl]benzonitrile]
95: Plant response rating, Sandbur (sandbur; 62 g ai/ha) | Plant response rating, Ryegrass, Italian (Italian ryegrass; 31 g ai/ha) | Plant response rating, Leafy Spurge (leafy spurge; 31 g ai/ha) | Plant response rating, Ragweed (ragweed; 250 g ai/ha) | Plant response rating, Bermudagrass (bermudagrass; 16 g ai/ha) | Plant response rating, Signalgrass (signalgrass; 16 g ai/ha)
98: Plant response rating, Ryegrass, Italian (Italian ryegrass; 62 g ai/ha) | Plant response rating, Quackgrass (quackgrass; 62 g ai/ha) | Plant response rating, Surinam Grass (surinam grass; 62 g ai/ha) | Plant response rating, Morningglory ([1]; 31 g ai/ha)
70: Plant response rating, Quackgrass (quackgrass; 31 g ai/ha) | Plant response rating, Nutsedge, Purple (nutsedge, purple; 125 g ai/ha) | Plant response rating, Ragweed (ragweed; 62 g ai/ha) | Plant response rating, Barnyardgrass (barnyardgrass; 16 g ai/ha)
50: Plant response rating, Quackgrass (quackgrass; 16 g ai/ha)
10: Plant response rating, Sandbur (sandbur; 16 g ai/ha)
25: Plant response rating, Poinsettia, Wild (wild poinsettia; 16 g ai/ha) | Plant response rating, Surinam Grass (surinam grass; 16 g ai/ha)
0: Plant response rating, Nutsedge, Purple (nutsedge, purple; 16 g ai/ha)
90: Plant response rating, Buckwheat, Wild (buckwheat, wild; 16 g ai/ha)
100: Plant response rating, Poinsettia, Wild (wild poinsettia; 62 g ai/ha) | Plant response rating, Poinsettia, Wild (wild poinsettia; 125 g ai/ha) | Plant response rating, Poinsettia, Wild (wild poinsettia; 250 g ai/ha) | Plant response rating, Sandbur (sandbur; 125 g ai/ha) | Plant response rating, Sandbur (sandbur; 250 g ai/ha) | Plant response rating, Sowthistle (sowthistle; 16 g ai/ha) | Plant response rating, Sowthistle (sowthistle; 31 g ai/ha) | Plant response rating, Sowthistle (sowthistle; 62 g ai/ha) | Plant response rating, Sowthistle (sowthistle; 125 g ai/ha) | Plant response rating, Sowthistle (sowthistle; 250 g ai/ha) | Plant response rating, Mustard, Black (mustard, black; 16 g ai/ha) | Plant response rating, Mustard, Black (mustard, black; 31 g ai/ha) | Plant response rating, Mustard, Black (mustard, black; 62 g ai/ha) | Plant response rating, Mustard, Black (mustard, black; 125 g ai/ha) | Plant response rating, Mustard, Black (mustard, black; 250 g ai/ha) | Plant response rating, Ryegrass, Italian (Italian ryegrass; 125 g ai/ha) | Plant response rating, Ryegrass, Italian (Italian ryegrass; 250 g ai/ha) | Plant response rating, Crabgrass, Large (large (Lg) crabgrass; 16 g ai/ha) | Plant response rating, Crabgrass, Large (large (Lg) crabgrass; 31 g ai/ha) | Plant response rating, Crabgrass, Large (large (Lg) crabgrass; 62 g ai/ha) | Plant response rating, Crabgrass, Large (large (Lg) crabgrass; 125 g ai/ha) | Plant response rating, Crabgrass, Large (large (Lg) crabgrass; 250 g ai/ha) | Plant response rating, Chickweed (chickweed; 16 g ai/ha) | Plant response rating, Chickweed (chickweed; 31 g ai/ha) | Plant response rating, Chickweed (chickweed; 62 g ai/ha) | Plant response rating, Chickweed (chickweed; 125 g ai/ha) | Plant response rating, Chickweed (chickweed; 250 g ai/ha) | Plant response rating, Pigweed (pigweed; 16 g ai/ha) | Plant response rating, Pigweed (pigweed; 31 g ai/ha) | Plant response rating, Pigweed (pigweed; 62 g ai/ha) | Plant response rating, Pigweed (pigweed; 125 g ai/ha) | Plant response rating, Pigweed (pigweed; 250 g ai/ha) | Plant response rating, Quackgrass (quackgrass; 125 g ai/ha) | Plant response rating, Quackgrass (quackgrass; 250 g ai/ha) | Plant response rating, Surinam Grass (surinam grass; 125 g ai/ha) | Plant response rating, Surinam Grass (surinam grass; 250 g ai/ha) | Plant response rating, Foxtail, Green (foxtail, green; 31 g ai/ha) | Plant response rating, Foxtail, Green (foxtail, green; 62 g ai/ha) | Plant response rating, Foxtail, Green (foxtail, green; 125 g ai/ha) | Plant response rating, Foxtail, Green (foxtail, green; 250 g ai/ha) | Plant response rating, Crabgrass, Naked (crabgrass, naked; 16 g ai/ha) | Plant response rating, Crabgrass, Naked (crabgrass, naked; 31 g ai/ha) | Plant response rating, Crabgrass, Naked (crabgrass, naked; 62 g ai/ha) | Plant response rating, Crabgrass, Naked (crabgrass, naked; 125 g ai/ha) | Plant response rating, Crabgrass, Naked (crabgrass, naked; 250 g ai/ha) | Plant response rating, Leafy Spurge (leafy spurge; 16 g ai/ha) | Plant response rating, Leafy Spurge (leafy spurge; 62 g ai/ha) | Plant response rating, Leafy Spurge (leafy spurge; 125 g ai/ha) | Plant response rating, Leafy Spurge (leafy spurge; 250 g ai/ha) | Plant response rating, Barnyardgrass (barnyardgrass; 31 g ai/ha) | Plant response rating, Barnyardgrass (barnyardgrass; 62 g ai/ha) | Plant response rating, Barnyardgrass (barnyardgrass; 125 g ai/ha) | Plant response rating, Barnyardgrass (barnyardgrass; 250 g ai/ha) | Plant response rating, Morningglory ([1]; 16 g ai/ha) | Plant response rating, Morningglory ([1]; 62 g ai/ha) | Plant response rating, Morningglory ([1]; 125 g ai/ha) | Plant response rating, Morningglory ([1]; 250 g ai/ha) | Plant response rating, Buckwheat, Wild (buckwheat, wild; 31 g ai/ha) | Plant response rating, Buckwheat, Wild (buckwheat, wild; 62 g ai/ha) | Plant response rating, Buckwheat, Wild (buckwheat, wild; 125 g ai/ha) | Plant response rating, Buckwheat, Wild (buckwheat, wild; 250 g ai/ha) | Plant response rating, Bermudagrass (bermudagrass; 31 g ai/ha) | Plant response rating, Bermudagrass (bermudagrass; 62 g ai/ha) | Plant response rating, Bermudagrass (bermudagrass; 125 g ai/ha) | Plant response rating, Bermudagrass (bermudagrass; 250 g ai/ha) | Plant response rating, Signalgrass (signalgrass; 31 g ai/ha) | Plant response rating, Signalgrass (signalgrass; 62 g ai/ha) | Plant response rating, Signalgrass (signalgrass; 125 g ai/ha) | Plant response rating, Signalgrass (signalgrass; 250 g ai/ha)
75: Plant response rating, Foxtail, Green (foxtail, green; 16 g ai/ha) | Plant response rating, Ragweed (ragweed; 125 g ai/ha)
65: Plant response rating, Poinsettia, Wild (wild poinsettia; 31 g ai/ha) | Plant response rating, Ragweed (ragweed; 31 g ai/ha)
60: Plant response rating, Surinam Grass (surinam grass; 31 g ai/ha) | Plant response rating, Nutsedge, Purple (nutsedge, purple; 31 g ai/ha) | Plant response rating, Ragweed (ragweed; 16 g ai/ha)
40: Plant response rating, Nutsedge, Purple (nutsedge, purple; 62 g ai/ha)
80: Plant response rating, Nutsedge, Purple (nutsedge, purple; 250 g ai/ha)
35: Plant response rating, Sandbur (sandbur; 31 g ai/ha) | Plant response rating, Ryegrass, Italian (Italian ryegrass; 16 g ai/ha)
